In data set [1] the test system is Escherichia coli BW25113. As to the kind of experiment: Inhibition of AcrB in wild-type drug resistant Escherichia coli BW25113 assessed as potentiation of erythromycin-induced antibacterial activity after 18 hrs by checkerboard method.
For data set [2], the system named is Escherichia coli BW25113. As to the kind of experiment: Inhibition of AcrB in drug resistant Escherichia coli BW25113 assessed as reduction in nile red efflux at 500 uM pretreated for 15 mins followed by nile red addition measured after 3 hrs for 200 secs in presence of glucose by fluorimetric method.
Data set [3] concerns Escherichia coli BW25113. As to the kind of experiment: Inhibition of […] in drug resistant Escherichia coli BW25113 assessed as increase in outer membrane permeability by measuring increase nitrocefin hydrolysis at 512 ug/ml measured over 30 mins in presence of CCCP by spectrophotometric method.
Data set [4] relates to Escherichia coli. As to the kind of experiment: Growth inhibition of wild-type drug-resistant Escherichia coli BW25113 after 18 hrs by resazurin dye based broth microdilution method. (Resazurin is reduced to fluorescent resorufin, in cell work by metabolically active cells.)
Data set [5] concerns Escherichia coli. The data set can be described thus: Effect on rifampicin-induced antibacterial activity against wild-type drug resistant Escherichia coli BW25113 after 18 hrs by checkerboard method. The format is functional.
In data set [6] the test system is Escherichia coli BW25113. As to the kind of experiment: Inhibition of AcrB in wild-type drug resistant Escherichia coli BW25113 assessed as potentiation of tetraphenyl phosphonium chloride-induced antibacterial activity after 18 hrs by checkerboard method.
The test system of data set [7] is Escherichia coli BW25113. As to the kind of experiment: Inhibition of AcrB in wild-type drug resistant Escherichia coli BW25113 assessed as potentiation of chloramphenicol-induced antibacterial activity after 18 hrs by checkerboard method.
In data set [8] the test system is Escherichia coli. As to the kind of experiment: Effect on rifampicin-induced antibacterial activity against wild-type drug resistant Escherichia coli BW25113 assessed as rifampicin MIC at 200 ug/ml after 18 hrs by checkerboard method (reference value: 16 ug/ml). It counts as functional. Particulars: BW25113, 18 h.
Data set [9] concerns Escherichia coli BW25113. As to the kind of experiment: Inhibition of AcrB in wild-type drug resistant Escherichia coli BW25113 assessed as potentiation of erythromycin-induced antibacterial activity by measuring erythromycin MIC at 200 ug/ml after 18 hrs by checkerboard method (reference value: 128 ug/ml).
The subject of data set [10] is Escherichia coli BW25113. The data set can be described thus: Inhibition of AcrB in wild-type drug resistant Escherichia coli BW25113 assessed as potentiation of tetraphenyl phosphonium chloride-induced antibacterial activity by measuring tetraphenyl phosphonium chloride MIC at 200 ug/ml after 18 hrs by checkerboard method (reference value: 1024 ug/ml).
Data set [11] relates to Escherichia coli BW25113. The data set can be described thus: Inhibition of AcrB in wild-type drug resistant Escherichia coli BW25113 assessed as potentiation of chloramphenicol-induced antibacterial activity by measuring chloramphenicol MIC at 200 ug/ml after 18 hrs by checkerboard method (reference value: 8 ug/ml).
Data set [12] relates to Escherichia coli BW25113. As to the kind of experiment: Inhibition of AcrB in drug resistant Escherichia coli BW25113 assessed as reduction in nile red efflux at 200 uM pretreated for 15 mins followed by nile red addition measured after 3 hrs for 200 secs in presence of glucose by fluorimetric method.

Activity calls are given as the source filed them. The calls are words filed in the database; no cut-off is given here. Peptide text beside a SMILES is read from it. * marks the point of attachment. βNA = c1ccc2cc(N*)ccc2c1

For `CC(C)COc1cc(C(N)=O)cc2ccccc12`, the inhibition entry in the data set on Escherichia coli BW25113 [1], in the data set with Escherichia coli BW25113 [2] and in the data set on Escherichia coli BW25113 [3] was “Active” each time. Also, the “growth inhibition (GI)” value with Escherichia coli [4] is recorded as “Non-Toxic”.

Take `NC(=O)c1cc(OCc2ccc(F)cc2)c2ccccc2c1`: the outcome in the data set on Escherichia coli [5] was inactive. Moreover, the inhibition result in the data set on Escherichia coli BW25113 [6], in the data set on Escherichia coli BW25113 [7] and with Escherichia coli BW25113 [1] was “inactive” each time. In addition, in the data set on Escherichia coli [4], the “growth inhibition (GI)” value was “Non-Toxic”.

Turning to `Cc1ccccc1COc1cc(C(N)=O)cc2ccccc12`, in the data set on Escherichia coli [5], the result was inactive. For the same molecule, the inhibition entry in the data set on Escherichia coli BW25113 [6], in the data set on Escherichia coli BW25113 [7] and with Escherichia coli BW25113 [1] was “inactive” each time. In addition, the “growth inhibition (GI)” value with Escherichia coli [4] is “Non-Toxic”.

For the molecule `NC(=O)c1cc(OCc2cccc(F)c2)c2ccccc2c1`, the result in the data set with Escherichia coli [5] was inactive. Also, the inhibition result in the data set with Escherichia coli BW25113 [6], in the data set with Escherichia coli BW25113 [7] and in the data set with Escherichia coli BW25113 [1] was “inactive” each time. In addition, the “growth inhibition (GI)” value with Escherichia coli [4] is listed as “Non-Toxic”.

`NC(=O)c1cc(OCc2ccccc2)c2ccccc2c1`: the inhibition result with Escherichia coli BW25113 [7], in the data set on Escherichia coli BW25113 [2] and in the data set with Escherichia coli BW25113 [3] was “Active” throughout. Moreover, the “growth inhibition (GI)” value with Escherichia coli [4] is “Non-Toxic”.

In the case of `N=C(N)NCCC[C@H](NC(=O)[C@@H](N)Cc1ccccc1)C(=O)Nc1ccc2ccccc2c1` [PABETAN] (H-Phe-Arg-βNA), the MIC with Escherichia coli [8] is 1 µg/mL; in the data set with Escherichia coli BW25113 [9] it was 16 µg/mL; in the data set on Escherichia coli BW25113 [10] it was 128 µg/mL; in the data set with Escherichia coli BW25113 [11] it was 2 µg/mL.

As for `CCOC(=O)COc1cc(C(N)=O)cc2ccccc12`, the outcome in the data set on Escherichia coli [5] was inactive. Also, the inhibition result in the data set on Escherichia coli BW25113 [6], in the data set on Escherichia coli BW25113 [7] and in the data set with Escherichia coli BW25113 [1] was “inactive” each time. Besides, the “growth inhibition (GI)” value in the data set with Escherichia coli [4] is “Non-Toxic”.

As to `CCOC(=O)C(C)Oc1cc(C(N)=O)cc2ccccc12` (stereo not drawn), in the data set with Escherichia coli [5], the result was inactive. Also, the inhibition entry in the data set on Escherichia coli BW25113 [6], in the data set on Escherichia coli BW25113 [7] and in the data set on Escherichia coli BW25113 [1] was “inactive” each time. The “growth inhibition (GI)” value in the data set on Escherichia coli [4] is given as “Non-Toxic”.

For the molecule `NC(=O)c1cc(OCc2ccccc2Cl)c2ccccc2c1`, in the data set on Escherichia coli [5], the outcome was inactive. In addition, the inhibition entry in the data set with Escherichia coli BW25113 [6], with Escherichia coli BW25113 [7] and in the data set on Escherichia coli BW25113 [1] was “inactive” throughout. In addition, the “growth inhibition (GI)” value in the data set on Escherichia coli [4] is reported as “Non-Toxic”.

For the molecule `NC(=O)c1cc(OCC2CCCC2)c2ccccc2c1`, the outcome in the data set with Escherichia coli [5] was inactive. In addition, the inhibition entry in the data set on Escherichia coli BW25113 [6], in the data set on Escherichia coli BW25113 [7] and in the data set on Escherichia coli BW25113 [1] was “inactive” throughout. In the data set with Escherichia coli [4], the “growth inhibition (GI)” value was “Non-Toxic”.

`CCOC(=O)CCCOc1cc(C(N)=O)cc2ccccc12`: the outcome with Escherichia coli [5] was inactive. Further, the inhibition result in the data set with Escherichia coli BW25113 [6], in the data set on Escherichia coli BW25113 [7] and in the data set with Escherichia coli BW25113 [1] was “inactive” in each case. Besides, the “growth inhibition (GI)” value in the data set on Escherichia coli [4] was “Non-Toxic”.

For the molecule `CCC(C)Oc1cc(C(N)=O)cc2ccccc12` (stereo not drawn), the result in the data set with Escherichia coli [5] was inactive. In addition, the inhibition entry with Escherichia coli BW25113 [6], in the data set on Escherichia coli BW25113 [7] and in the data set on Escherichia coli BW25113 [1] was “inactive” each time. Moreover, the “growth inhibition (GI)” value with Escherichia coli [4] is “Non-Toxic”.

Consider `CCCCC(CC)COc1cc(C(N)=O)cc2ccccc12` (stereo not drawn), for which the outcome with Escherichia coli [5] was inactive. The inhibition result in the data set on Escherichia coli BW25113 [6], in the data set with Escherichia coli BW25113 [7] and in the data set on Escherichia coli BW25113 [1] was “inactive” each time. Further, in the data set with Escherichia coli [4], the “growth inhibition (GI)” value is “Non-Toxic”.

For `NC(=O)c1cc(OCc2ccccc2F)c2ccccc2c1`, the inhibition entry in the data set with Escherichia coli BW25113 [12] is “Active”. Moreover, the outcome in the data set with Escherichia coli [5] was inactive. Also, the inhibition entry in the data set on Escherichia coli BW25113 [6], with Escherichia coli BW25113 [7] and with Escherichia coli BW25113 [1] was “inactive” in each case. In addition, the “growth inhibition (GI)” value in the data set on Escherichia coli [4] is “Non-Toxic”.
